Laboratory results reported in patent publication US12479830B2, “Homopiperazinyl and homopiperidinyl quinazolin-4(3H)-one derivatives having multimodal activity against pain” (ESTEVE PHARMACEUTICALS, S.A., priority 2019, dated 2025).

Tests used:
[1] = biological target: Human α2δ-1 subunit of Cav2.2 calcium channel (Homo sapiens, UniProt P54289); experiment: Human α2δ-1 subunit of Cav2.2 calcium channel assay ([3H]-gabapentin binding); settings: binding to the α2δ-1 subunit of voltage-gated calcium channels, expressed as Ki class; + also covers inhibition between 1% and 50%
Chain of Human α2δ-1 subunit of Cav2.2 calcium channel (P54289 25-1103): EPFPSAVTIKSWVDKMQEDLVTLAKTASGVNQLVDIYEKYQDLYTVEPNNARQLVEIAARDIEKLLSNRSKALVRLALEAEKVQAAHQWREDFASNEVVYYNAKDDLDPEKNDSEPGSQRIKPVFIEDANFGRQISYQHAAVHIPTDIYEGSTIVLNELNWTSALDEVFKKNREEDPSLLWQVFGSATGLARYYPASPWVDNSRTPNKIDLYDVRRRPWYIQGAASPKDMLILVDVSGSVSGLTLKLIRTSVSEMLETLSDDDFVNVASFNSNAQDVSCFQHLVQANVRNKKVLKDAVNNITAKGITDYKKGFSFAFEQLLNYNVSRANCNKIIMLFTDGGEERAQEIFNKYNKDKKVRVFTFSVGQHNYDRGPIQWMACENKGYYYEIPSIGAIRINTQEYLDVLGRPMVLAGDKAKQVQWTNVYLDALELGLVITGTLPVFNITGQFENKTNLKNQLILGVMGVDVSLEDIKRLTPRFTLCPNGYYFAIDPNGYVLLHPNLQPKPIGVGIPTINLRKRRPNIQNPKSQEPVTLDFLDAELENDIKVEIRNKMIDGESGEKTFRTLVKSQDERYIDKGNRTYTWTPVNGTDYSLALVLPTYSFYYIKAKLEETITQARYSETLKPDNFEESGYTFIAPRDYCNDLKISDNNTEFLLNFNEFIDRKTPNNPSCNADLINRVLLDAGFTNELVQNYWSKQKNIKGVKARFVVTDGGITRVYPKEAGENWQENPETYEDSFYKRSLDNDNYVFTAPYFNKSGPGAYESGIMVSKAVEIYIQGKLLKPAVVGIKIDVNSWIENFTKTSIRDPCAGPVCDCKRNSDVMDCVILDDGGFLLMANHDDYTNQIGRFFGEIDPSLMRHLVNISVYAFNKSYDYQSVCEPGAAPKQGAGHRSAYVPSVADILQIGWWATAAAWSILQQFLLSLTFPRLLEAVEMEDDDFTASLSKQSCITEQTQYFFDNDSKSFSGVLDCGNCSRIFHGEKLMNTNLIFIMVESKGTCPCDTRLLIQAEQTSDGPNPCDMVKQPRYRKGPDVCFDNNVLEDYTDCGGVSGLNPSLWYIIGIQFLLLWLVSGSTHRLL
Procedure, shortened: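 Human α2δ-1 enriched membranes (2.5 μg) incubated 60 min at 27° C. with 15 nM [3H]-gabapentin in 10 mM Hepes-KOH pH 7.4; non-specific binding with 10 μM pregabalin. Filtration binding; % inhibition at 1 or 10 μM, or Ki from five concentrations.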

Human σ1 receptor = biological target: T1, Human σ1 receptor (Homo sapiens, UniProt Q99720); experiment: Human σ1 receptor radioligand assay ([3H](+)-pentazocine binding); settings: binding to the σ1 receptor, expressed as Ki class; + also covers inhibition between 1% and 50%
T1 construct: expressed in transfected cells; host or cells: HEK-293
T1 sequence (Q99720 whole entry): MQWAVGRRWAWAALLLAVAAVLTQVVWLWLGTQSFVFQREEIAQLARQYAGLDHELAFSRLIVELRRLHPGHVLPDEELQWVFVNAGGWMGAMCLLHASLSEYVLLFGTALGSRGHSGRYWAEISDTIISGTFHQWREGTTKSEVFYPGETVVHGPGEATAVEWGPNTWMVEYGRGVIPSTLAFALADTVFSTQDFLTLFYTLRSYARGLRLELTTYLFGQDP
Procedure, shortened: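 Membranes (7 μg) were incubated with 5 nM [3H](+)-pentazocine in 50 mM Tris-HCl pH 8 for 120 min at 37° C. Non-specific binding was defined with 10 μM haloperidol. Values are % inhibition at 1 or 10 μM or Ki from five concentrations, read by filtration and scintillation counting.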

| Compound | Ki [1] [nM] | Ki (Human σ1 receptor) [nM] |
| --- | --- | --- |
| CCCC(c1nc2ccc(Br)c(F)c2c(=O)n1CC)N1CCCN(CC)CC1 (stereo not shown) [Example 52, 6-bromo-3-ethyl-2-(1-(4-ethyl-1,4-diazepan-1-yl)butyl)-5-fluoroquinazolin-4(3H)-one] | 500 to 5000 | < 500 |
| CCC[C@H](c1nc2ccc(F)cc2c(=O)n1C)N1CCN[C@H](C)CC1 [Example 255, 6-fluoro-3-methyl-2-((R)-1-((R)-5-methyl-1,4-diazepan-1-yl)butyl)quinazolin-4(3H)-one] | > 5000 | > 1000 |
| CCCC(c1nc2cc(F)c(Br)cc2c(=O)n1C)N1CCCN(C)CC1 (stereo not shown) [Example 77, 6-bromo-7-fluoro-3-methyl-2-(1-(4-methyl-1,4-diazepan-1-yl)butyl)quinazolin-4(3H)-one] | 500 to 5000 | < 500 |
| CCC[C@H](c1nc2ccc(Br)cc2c(=O)n1CC)N1CCN(C)C[C@@H](CO)C1 [Example 125, 6-bromo-3-ethyl-2-((R)-1-((R)-6-(hydroxymethyl)-4-methyl-1,4-diazepan-1-yl)butyl)quinazolin-4(3H)-one] | 500 to 5000 | 500 to 1000 |
| CCC[C@@H](c1nc2ncc(Br)cc2c(=O)n1CC)N1CCNC[C@H](C)C1 [Example 200, 6-bromo-3-ethyl-2-((S)-1-((S)-6-methyl-1,4-diazepan-1-yl)butyl)pyrido[2,3-d]pyrimidin-4(3H)-one] | > 5000 | > 1000 |
| CCC[C@@H](c1nc2ccc(F)cc2c(=O)n1CC)N1CCCN[C@H](C)C1 [Example 146] | > 5000 | > 1000 |
| CCCC(c1nc2ccc(Br)cc2c(=O)n1CC)N1CCNCC(C)(C)C1 (stereo not shown) [Example 28, 6-bromo-2-(1-(6,6-dimethyl-1,4-diazepan-1-yl)butyl)-3-ethylquinazolin-4(3H)-one] | 500 to 5000 | 500 to 1000 |
| CCC[C@@H](c1nc2ncc(F)cc2c(=O)n1CC)N1CCCN(C)CC1 [Example 202, (S)-3-ethyl-6-fluoro-2-(1-(4-methyl-1,4-diazepan-1-yl)butyl)pyrido[2,3-d]pyrimidin-4(3H)-one] | > 5000 | > 1000 |
| CCCC(c1nc2ccc(Br)c(Cl)c2c(=O)n1CC)N1CCCN(C)CC1 (stereo not shown) [Example 56, 6-bromo-5-chloro-3-ethyl-2-(1-(4-methyl-1,4-diazepan-1-yl)butyl)quinazolin-4(3H)-one] | 500 to 5000 | < 500 |
| CCC[C@H](c1nc2ccc(F)c(F)c2c(=O)n1CC)N1CCN[C@H](C)CC1 [Example 239, 3-ethyl-5,6-difluoro-2-((R)-1-((R)-5-methyl-1,4-diazepan-1-yl)butyl)quinazolin-4(3H)-one] | > 5000 | > 1000 |
| CCCC(c1nc2c(Cl)cc(Br)cc2c(=O)n1CC)N1CCCN(C)CC1 (stereo not shown) [Example 49, 6-bromo-8-chloro-3-ethyl-2-(1-(4-methyl-1,4-diazepan-1-yl)butyl)quinazolin-4(3H)-one] | > 5000 | 500 to 1000 |
| CCCC(c1nc2ccc(Br)c(C)c2c(=O)n1CC)N1CCCNCC1 (stereo not shown) [Example 41, 2-(1-(1,4-diazepan-1-yl)butyl)-6-bromo-3-ethyl-5-methylquinazolin-4(3H)-one] | > 5000 | > 1000 |
| CCC[C@H](c1nc2cc(F)c(OC)cc2c(=O)n1CC)N1CCNC[C@H](C)C1 [Example 244, 3-ethyl-7-fluoro-6-methoxy-2-((R)-1-((S)-6-methyl-1,4-diazepan-1-yl)butyl)quinazolin-4(3H)-one] | 500 to 5000 | > 1000 |
| CCC[C@@H](c1nc2cc(F)c(Br)cc2c(=O)n1CC)N1CCCNCC1 [Example 158, (S)-2-(1-(1,4-diazepan-1-yl)butyl)-6-bromo-3-ethyl-7-fluoroquinazolin-4(3H)-one] | > 5000 | > 1000 |
| CCC[C@H](c1nc2cc(F)c(OC)cc2c(=O)n1CC)N1CCN(C)C[C@@H](C)C1 [Example 237, 2-((R)-1-((R)-4,6-dimethyl-1,4-diazepan-1-yl)butyl)-3-ethyl-7-fluoro-6-methoxyquinazolin-4(3H)-one] | < 500 | > 1000 |
| CCC[C@H](c1nc2cc(F)c(F)cc2c(=O)n1CC)N1CCCN[C@@H](C)C1 [Example 260, 3-ethyl-6,7-difluoro-2-((R)-1-((S)-3-methyl-1,4-diazepan-1-yl)butyl)quinazolin-4(3H)-one] | < 500 | > 1000 |
| CCCC(c1nc2ccc(Br)c(Cl)c2c(=O)n1CC)N1CCCN(CC)CC1 (stereo not shown) [Example 83, 6-bromo-5-chloro-3-ethyl-2-(1-(4-ethyl-1,4-diazepan-1-yl)butyl)quinazolin-4(3H)-one] | > 5000 | < 500 |

Next, values leading:

| Ki [1] [nM] | Ki (Human σ1 receptor) [nM] | Compound |
| --- | --- | --- |
| < 500 | < 500 | CCCC(c1nc2ccc(Br)cc2c(=O)n1CC)N1CCCN(C)CC1 (stereo not shown) [Example 1, 6-Bromo-3-ethyl-2-(1-(4-methyl-1,4-diazepan-1-yl)butyl)quinazolin-4(3H)-one] |
| < 500 | > 1000 | CCC[C@H](c1nc2ccc(Cl)cc2c(=O)n1C)N1CCCN[C@@H](C)C1 [Example 148, 6-chloro-3-methyl-2-((R)-1-((S)-3-methyl-1,4-diazepan-1-yl)butyl)quinazolin-4(3H)-one] |
| < 500 | 500 to 1000 | CCCC(c1nc2ccc(Cl)cc2c(=O)n1CCC)N1CCCN(C)CC1 (stereo not shown) [Example 23, 6-chloro-2-(1-(4-methyl-1,4-diazepan-1-yl)butyl)-3-propylquinazolin-4(3H)-one] |
| < 500 | < 500 | CCC[C@H](c1nc2ccc(C(F)(F)F)cc2c(=O)n1CC)N1CCCN(C)CC1 [Example 252, (R)-3-ethyl-2-(1-(4-methyl-1,4-diazepan-1-yl)butyl)-6-(trifluoromethyl)quinazolin-4(3H)-one] |
| < 500 | 500 to 1000 | CCC[C@H](c1nc2ccc(OC(F)(F)F)cc2c(=O)n1CC)N1CCCN(C)CC1 [Example 249, (R)-3-ethyl-2-(1-(4-methyl-1,4-diazepan-1-yl)butyl)-6-(trifluoromethoxy)quinazolin-4(3H)-one] |
| < 500 | < 500 | CCC[C@H](c1nc2ccc(F)cc2c(=O)n1CC)N1CCCN(CC)CC1 [Example 210, (R)-3-ethyl-2-(1-(4-ethyl-1,4-diazepan-1-yl)butyl)-6-fluoroquinazolin-4(3H)-one] |
| < 500 | > 1000 | CCCC(c1nc2ncc(F)cc2c(=O)n1CC1CC1)N1CCCN(CC)CC1 (stereo not shown) [Example 185, 3-(cyclopropylmethyl)-2-(1-(4-ethyl-1,4-diazepan-1-yl)butyl)-6-fluoropyrido[2,3-d]pyrimidin-4(3H)-one] |
| < 500 | < 500 | CCC[C@H](c1nc2ccc(F)c(F)c2c(=O)n1CC)N1CCN[C@@H](C)CC1 [Example 240, 3-ethyl-5,6-difluoro-2-((R)-1-((S)-5-methyl-1,4-diazepan-1-yl)butyl)quinazolin-4(3H)-one] |
| < 500 | < 500 | CCC[C@H](c1nc2ccc(F)cc2c(=O)n1CC1CC1)N1CCCN(C)CC1 [Example 219, (R)-3-(cyclopropylmethyl)-6-fluoro-2-(1-(4-methyl-1,4-diazepan-1-yl)butyl)quinazolin-4(3H)-one] |
| < 500 | > 1000 | CCC[C@H](c1nc2ccncc2c(=O)n1CC)N1CCN(C)C[C@@H](C)C1 [Example 168, 2-((R)-1-((R)-4,6-dimethyl-1,4-diazepan-1-yl)butyl)-3-ethylpyrido[4,3-d]pyrimidin-4(3H)-one] |
| < 500 | 500 to 1000 | CCC[C@H](c1nc2ccc(Br)cc2c(=O)n1CC)N1CCCN[C@H](C)C1 [Example 139, 6-Bromo-3-ethyl-2-((R)-1-((R)-3-methyl-1,4-diazepan-1-yl)butyl)quinazolin-4(3H)-one] |
| < 500 | < 500 | CCC[C@H](c1nc2ccc(F)cc2c(=O)n1CC)N1CCCN(C)CC1 [Example 209, (R)-3-Ethyl-6-fluoro-2-(1-(4-methyl-1,4-diazepan-1-yl)butyl)quinazolin-4(3H)-one] |
| < 500 | > 1000 | CCCC(c1nc2ncc(Br)cc2c(=O)n1CCC)N1CCCN(C)CC1 (stereo not shown) [Example 181, 6-bromo-2-(1-(4-methyl-1,4-diazepan-1-yl)butyl)-3-propylpyrido[2,3-d]pyrimidin-4(3H)-one] |
| < 500 | < 500 | CCC[C@H](c1nc2ccc(Cl)cc2c(=O)n1C)N1CCCN[C@H](C)C1 [Example 147, 6-Chloro-3-methyl-2-((R)-1-((R)-3-methyl-1,4-diazepan-1-yl)butyl)quinazolin-4(3H)-one] |
| < 500 | 500 to 1000 | CCCC(c1nc2cc(C)c(Br)cc2c(=O)n1CC)N1CCCN(C)CC1 (stereo not shown) [Example 39, 6-bromo-3-ethyl-7-methyl-2-(1-(4-methyl-1,4-diazepan-1-yl)butyl)quinazolin-4(3H)-one] |
| < 500 | > 1000 | CCCC(c1nc2ncc(F)cc2c(=O)n1CC1CC1)N1CCCN(C)CC1 (stereo not shown) [Example 184, 3-(cyclopropylmethyl)-6-fluoro-2-(1-(4-methyl-1,4-diazepan-1-yl)butyl)pyrido[2,3-d]pyrimidin-4(3H)-one] |
| < 500 | < 500 | CCC[C@H](c1nc2ccc(F)cc2c(=O)n1CC(C)C)N1CCCN(CC)CC1 [Example 215, (R)-2-(1-(4-ethyl-1,4-diazepan-1-yl)butyl)-6-fluoro-3-isobutylquinazolin-4(3H)-one] |
| < 500 | 500 to 1000 | CCC[C@H](c1nc2cc(F)c(Cl)cc2c(=O)n1CC)N1CCN(C)C[C@@H](C)C1 [Example 136, 6-chloro-2-((R)-1-((R)-4,6-dimethyl-1,4-diazepan-1-yl)butyl)-3-ethyl-7-fluoroquinazolin-4(3H)-one] |
